From article PMC10194981, “Chemosensory protein regulates the behavioural response of Frankliniella intonsa and Frankliniella occidentalis to tomato zonate spot virus–Infected pepper (Capsicum annuum)” (PLOS Pathogens, 2023)

Key:
[1] = molecular target: FoccCSP-Val132Ala (Frankliniella occidentalis, UniProt G4Y3X1, V132A); experiment: Fluorescence (1-NPN) binding and competitive binding assay, FoccCSP mutant (negative control residue)
Description: The binding affinity of FintCSP1 and FoccCSP to the fluorescent probe N-phenyl-1-naphthylamine (1-NPN) was tested using a Spectramax M2 fluorescence spectrometer (Molecular Devices, USA) as reported previously. Volatile compounds and 1-NPN were first dissolved to a concentration of 1 mM in HPLC-grade methanol and dissolved to their indicated final concentration (2–20 μM) to titrate 2 μM protein solutions resuspended in 50 mM Tris-HCl (pH 7.4). The 1-NPN/FintCSP1 or 1-NPN/FoccCSP mixture was excited at 280 nm, and the emission spectra were recorded at 415 nm. The binding constants (Kd) of FintCSP1 or FoccCSP to 1-NPN were calculated by Scatchard analysis using Prism 5 software (GraphPad, La Jolla, CA, USA). Assuming a protein activity of 100% and that the volatile compound binds to the protein in a 1:1 ratio at saturation, the dissociation constants (Ki) of FintCSP1 or FoccCSP for each ligand were calculated according to the IC50 (the concentration when the ligand replaces 50% of the probe) value of the volatile compounds. The Ki values were calculated according to the following equation: Ki = [IC50]/(1 + [1-NPN]/K1-NPN), where [1-NPN] is the free concentration of 1-NPN, and K1-NPN is the Kd of the 1-NPN/FintCSP1 or 1-NPN/FoccCSP.
To verify the key amino acids of FintCSP1 and FoccCSP that bind to cis-3-hexenal, six amino acid residues of FintCSP1 were mutated (Lys26Ala, Phe27Ala, Thr28Ala, Glu67Ala, Ser84Ala, and the negative control residue Val132Ala) and nine amino acid residues of FoccCSP were mutated (Lys26Ala, Phe27Ala, Thr28Ala, Thr29Ala, Tyr31Ala, Asp64Ala, Glu67Ala, Gln87Ala, and the negative control residue Val132Ala) with the Fast Mutagenesis System Kit (Transgen Biotech, Beijing, China) using the pET-30a/FintCSP1 and pET-30a/FoccCSP plasmid DNA as template, respectively. Specific primers were designed using Primer Premier 5.0 according to the instructions of the Fast Mutagenesis System Kit (S1 Table). After validation by sequencing, each recombinant variant protein was produced and purified as described above, and their binding affinity to cis-3-hexenal was measured as described above.

[2] = system: F. intonsa; experiment: Y-tube olfactometer preference test; format: in vivo, Frankliniella intonsa
Description: F. intonsa and F. occidentalis preference tests of plant volatile cues were performed using a glass Y-tube olfactometer according to the method described by Wang et al. (2014) with minor modifications. A Y-shaped tube (1-cm inner diameter) consisted of a central tube (10 cm in length) and two arms (10 cm in length, offset by 60°) connected to two different glass odor bottles. One glass odor bottle was 50 cm in height, with a 10-cm inner diameter that contained pepper plants (14-day post-viral infection); the other glass odor bottle was 5 cm in height, with a 3-cm inner diameter for plant VOCs. The airflow in the olfactometer (200 mL/min) was filtered through activated carbon and calibrated using a flow meter at the end of each arm. To remove all visual cues, the Y-tube was positioned horizontally in a black airtight cubic box (90 cm × 60 cm × 40 cm). The tested odor sources (pepper plant VOCs) were enclosed in the odor bottles 5 min prior to each test to allow the odors to fill the arms. Thrips (2-day-old, starved for 1 h) were individually placed in the central tube and allowed to choose between the two arms. When the thrips had climbed over 2/3 of the side arm and stayed there for more than 30 s, it was considered to have made a selection. If the thrips had not made a choice after being placed in the straight arm for 5 min, the insect behaviour was scored as “no selection,” and it was not counted in the total data. The direction of the Y-tube arms and the silicone tubes were adjusted after five tested thrips to eliminate the influence of position. The Y-tube was replaced after 10 tested thrips to eliminate the possible influence of existing odors on thrips behaviour. Each treatment consisted of 20 thrips, with three replicates per treatment.
(§1) The FintCSP1, FintCSP2, FintOBP, FintOR, FoccCSP, and enhanced green fluorescent protein (EGFP) coding sequences were obtained from GenBank under accession numbers MT199111, MT211602, OK067245, MT211603, AEP27186.1, and U55761.1, respectively. Primers were designed using Primer Premier 5.0, and the T7 promoter sequence (5′-[…]-3′) was added to the 5′ end of each primer (S1 Table). DNA fragments containing T7 promoter sequences were amplified by PCR using pEASY-T1/target gene or pUC-EGFP (preserved in the laboratory) plasmid DNA as template. Then, a double-stranded RNA (dsRNA) was produced from each target gene using the HiScribe T7 Quick High Yield RNA Synthesis Kit (New England Biolabs) according to the manufacturer’s instructions. […]

[3] = system: F. occidentalis antennae; experiment: Electroantennogram (EAG) assay; set-up: species or system Frankliniella occidentalis; conditions: dsFoccCSP-injected compared to dsEGFP-injected F. occidentalis
Description: as §1
At 24 h after dsRNA injection, the electrophysiological responses of F. intonsa antennae to six volatile components (i.e., m-cymene, cis-3-hexenal, (+)-2-carene, trans-2-hexenal, α-phellandrene, and α-humulene) or F. occidentalis antennae to cis-3-hexenal were recorded using EAG. […] The EAG values to volatile compounds were calculated using the following equation: absolute value of EAG reaction = reaction value of the tested sample—average value of two control measurements.

[4] = system: fall webworm moth (Hyphantria cunea) antennae; set-up: method as in PMID 23166622; conditions: cited from earlier work

Sequence of FoccCSP-Val132Ala (G4Y3X1 entry or part of it V132A): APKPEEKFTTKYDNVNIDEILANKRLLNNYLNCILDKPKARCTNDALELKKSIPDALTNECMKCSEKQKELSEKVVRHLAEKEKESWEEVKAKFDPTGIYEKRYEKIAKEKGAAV

What does the source list for `CC/C=C\CC=O` [cis-3-hexenal]?
IC50 [1]: 28.7 ± 0.12 µM; Ki [1]: 23.69 ± 0.1 µM; binding to cis-3-hexenal (in words) ([1]; FoccCSP-Val132Ala compared to the wild-type protein): only a minor change in binding; individuals that recognized the compound ([2]; dsEGFP-treated F. intonsa, vs liquid paraffin control): 73.3%; preference of FintCSP1-silenced thrips (in words) ([2]; dsFintCSP1-injected F. intonsa, vs liquid paraffin control): no preference; preference of F. intonsa in Y-tube olfactometer (in words) ([2]; volatile compound vs liquid paraffin control, n = 60): reached statistical significance; EAG response of FoccCSP-silenced antennae (in words) [3]: significantly lower response; effect on antennal sensitivity to pheromones (in words) [4]: raising the sensitivity
